The values that follow are results of earlier work, collected in patent US11896675B2, “Site-specific antibody conjugation and antibody-drug conjugate as specific embodiment thereof” (AbTis Co., Ltd., priority 2019, dated 2024).

Square brackets hold non-standard residues; d marks the D form. Ends that are not written are not given here. Cit = NC(=O)NCCC[C@H](N)C(=O)O

Series [1] relates to IgG. To be noted: towards IgG, obtained at different conditions or by different methods; for Kd: read-out: Binding Constant Kd.
The test system of series [2] is IgG. To be noted: towards IgG.

For NKFRGKYK [spot peptide array peptide], in the series with IgG [1], the “Binding Constant Ka” value was “Ka = 8.6 × 10^6M^−1”. Besides, the “Binding Capacity, DBC (dynamic binding capacity)” value in the series on IgG [2] is “DBC-4.9”.

As usually defined, the Kd is the constant that tells how readily two partners part at equilibrium. As to FYCHWALE, the Kd at IgG [1] was 6.1 µM. For the same substance, the “Binding Capacity (maximal binding capacity qm)” value in the series with IgG [2] was 87.6 mg/mL.

Regarding “EPIHRSTLTALL [phage display library peptide, SpA mimic]”, in the series on IgG [2], the “Binding Capacity” value is 320 µg/g.

In the case of NARKFYKG [spot peptide array peptide], in the series with IgG [1], the “Binding Constant Ka” value is on record as “Ka = 6.5 × 10^6M^−1”. Moreover, the “Binding Capacity, DBC (dynamic binding capacity)” value in the series with IgG [2] is “DBC-5.0”.

In the case of “KHRFNKD [phage-display library peptide, SpA mimic]”, the Kd at IgG [1] was 0.02 µM.

Consider RRGW, for which the Kd on IgG [1] was 0.0005 µM.

Take FYWHCLDE: the Kd at IgG [1] was 1.5 µM. Moreover, in the series on IgG [2], the “Binding Capacity (maximal binding capacity qm)” value is listed as 104.2 mg/mL.

Turning to “D2AAG (DDAAG) [Compound D2AAG, comb. library ligand, SpA mimic]”, the “Binding Constant Ka” value in the series with IgG [1] is recorded as “Ka = 7.9 × 10^5M^−1”. In the series with IgG [2], the “Binding Capacity (maximal binding capacity qm)” value is 36.2 mg/mL.

Take cyclo[(Link-M-WFRHYK]: the Kd at IgG [1] was 7.6 µM. Further, the “Binding Capacity (maximal binding capacity qm)” value with IgG [2] is given as 19.7 mg/mL.

Take “HYFKFD [comb. library peptide, SpA mimic]”: the Kd on IgG [1] is 11 µM. For the same substance, the “Binding Capacity (maximal binding capacity qm)” value in the series with IgG [2] is 27.0 mg/mL.

As for “FRRHL [comb. library peptide, SpA mimic]”, the Kd on IgG [1] is 26 µM. Moreover, the “Binding Capacity (maximal binding capacity qm)” value in the series on IgG [2] is 33.6 mg/mL.

For the substance DAAG [comb. library ligand, SpA mimic], the “Binding Constant Ka” value with IgG [1] is reported as “Ka = 2.6 × 10^5M^−1”. The “Binding Capacity (maximal binding capacity qm)” value in the series on IgG [2] is listed as 49.6 mg/mL.

Take FYCHTIDE [FYCHTIDE(3)]: the Kd at IgG [1] is 5.7 µM. In addition, the “Binding Capacity (maximal binding capacity qm)” value in the series with IgG [2] is listed as 63.7 mg/mL.

As to “APAR [comb. tetrapeptide library peptide]”, the Kd at IgG [1] was 0.094 µM. For the same substance, in the series on IgG [2], the “Binding Capacity (maximal binding capacity qm)” value is 9.1 mg/mL.

As for “HWCitGWV (HW[Cit]GWV) [comb. library peptide, SpA mimic]”, the Kd at IgG [1] is 108 µM. For the same substance, in the series on IgG [2], the “Binding Capacity (maximal binding capacity qm)” value is given as 78 mg/mL.

As to “HWRGWV [comb. library peptide, SpA mimic]”, on IgG [1], the Kd is 10 µM. Moreover, the “Binding Capacity (maximal binding capacity qm)” value in the series on IgG [2] is given as 26.4 mg/mL.
